Assay results taken from US20230115252A1, “METHODS FOR TREATING NEUROMUSCULAR JUNCTION-RELATED DISEASES” (NSERM (Institut National de la Sante et de la Recherche …, priority 2014, published 2023).

Tests used:
[1] = tested on: MuSKΔCRD primary myotubes; assay: AChR clustering in MuSKΔCRD primary myotubes; format: cell-based, mice; details: 16 h
Experimental: (§1) Muscle cells were isolated from P7-P10 hind limb Tibialis Anterior (TA) and Gastrocnemius muscles from MuSKΔCRD or WT mice. Briefly, muscle tissues were excised, separated from connective tissue, minced in dissecting medium (DMEM-F12 medium containing 2 mM glutamine, 2% penicillin/streptomycin (500 U), 2% Fungizone) and dissociated in dissecting medium containing 0.2% type I collagenase (Gibco) for 90 min at 37° C. in water bath. Cells were centrifugated, filtered and resuspended in proliferating medium (dissecting medium supplemented with 20% horse serum and 2% Ultroser G, Pall). After overnight pre-plating, cells were expanded in Matrigel (Corning) coated dishes for 3 to 5 days and differentiated in differentiating medium (dissecting medium supplemented with 2% horse serum) for 5 days. When indicated, myotubes were treated with recombinant Agrin (0.4 μg/ml, R&D system), Wnt11 (10 ng/ml, R&D system) or LiCl (2.5 mM, Sigma) for 16 h.
All images were collected on a microscope (model BX61; Olympus) equipped with a Fast 1394 Digital CCD FireWire camera (model Retiga 2000R; Qimaging) and a 20× objective or on a confocal laser scanning microscope (Zeiss LSM-710) equipped with a 20× objective and 63× oil objective. Collected Z-stacks confocal images (5 to 20 stacks with 1 to 1.5 μm (20×) z-steps) and image capture were made using LSM Image Browser. The same laser power and parameter setting were applied to ensure fair comparison between WT and MuSKΔCRD muscles. […] For quantification of the AChR clusters number, volume and intensity, image stacks were quantified using the ImageJ (version 1.46m) plugin “3D object counter” (Bolte and Cordeliéres, 2006). […] At least 4 diaphragms or 50 isolated muscle fibers of each genotype were analyzed and quantified. To evaluate β-catenin translocation to subsynaptic nuclei in isolated muscle fibers, image stacks corresponding to nuclei were used for quantification using the ImageJ intensity plot profile measuring the intensity of β-catenin and Dapi fluorescence within the segmented line.

[2] = tested on: Wnt/β-catenin signaling in MuSKΔCRD primary myotubes; assay: β-catenin translocation to the nucleus in primary myotubes; format: cell-based, mice
Experimental: as §1

MuSKΔCRD embryos = assay: NMJ formation in E18.5 MuSKΔCRD embryos after intraperitoneal injections in pregnant mice (whole mount diaphragm); format: in vivo
Experimental: Diaphragm muscles were dissected and fixed (4% paraformaldehyde in PBS) for 1 h at room temperature and further fixed (1% formaldehyde in PBS) overnight at 4° C. Muscles were washed three times for 15 minutes in PBS, incubated for 15 minutes with 100 mM glycine in PBS and rinsed in PBS. Muscles were permeabilized (0.5% Triton X-100 in PBS) for 1 h and blocked for 4 hours in blocking buffer (3% BSA, 5% goat serum and 0.5% Triton X-100 in PBS). Muscles were incubated overnight at 4° C. with rabbit polyclonal antibodies against neurofilament and synaptophysin in blocking solution. After three 1-hour washes in PBS, muscles were incubated overnight at 4° C. with Alexa-488 goat anti-rabbit IgG and Alexa-594-conjugated-α-bungarotoxin (α-BGT) in blocking solution. After three 1-hour washes in PBS, muscles were flat-mounted in Vectashield (Vector Labs) mounting medium.
(§2) All images were collected on a microscope (model BX61; Olympus) equipped with a Fast 1394 Digital CCD FireWire camera (model Retiga 2000R; Qimaging) and a 20× objective or on a confocal laser scanning microscope (Zeiss LSM-710) equipped with a 20× objective and 63× oil objective. Collected Z-stacks confocal images (5 to 20 stacks with 1 to 1.5 μm (20×) z-steps) and image capture were made using LSM Image Browser. The same laser power and parameter setting were applied to ensure fair comparison between WT and MuSKΔCRD muscles. Multiple Tile Scanned images were taken to cover the size of the whole diaphragm. Confocal images presented are single-projected image derived from overlaying each set of stacks. For quantification of the AChR clusters number, volume and intensity, image stacks were quantified using the ImageJ (version 1.46m) plugin “3D object counter” (Bolte and Cordeliéres, 2006). The threshold intensity was set by visual inspection of AChR clusters, being the same between WT and MuSKΔCRD images. The endplate band width was defined by the distance between the two farthest AChR clusters from the main nerve trunk. Around 100 measurements regularly spaced and covering the entire diaphragm were taken. At least 4 diaphragms or 50 isolated muscle fibers of each genotype were analyzed and quantified. To evaluate β-catenin translocation to subsynaptic nuclei in isolated muscle fibers, image stacks corresponding to nuclei were used for quantification using the ImageJ intensity plot profile measuring the intensity of β-catenin and Dapi fluorescence within the segmented line.
(§3) E12 pregnant mice or P10 adult mice were intraperitoneally injected with LiCl (Sigma, 600 mM-10 μl/g body weight) or placebo NaCl solution (0,0009%-10 μl/g body weight). Daily injections were made from E12 to E18 or from P10 to P60. After embryos genotyping, E18.5 or P60 diaphragms of LiCl-treated MuSKΔCRD mice were analyzed and compared to WT or NaCl-treated MuSKΔCRD.

MuSKΔCRD mice [3] = assay: NMJ morphology in postnatal MuSKΔCRD mice injected P10 to P60 (isolated TA muscle fibers); format: in vivo
Experimental: (§4) Isolated muscle fibers were labeled with antibodies as for whole-mount immunostaining Incubation times were the following: 3 hours for blocking, overnight at 4° C. for incubation with primary or secondary antibodies.
as §2
E12 pregnant mice or P10 adult mice were intraperitoneally injected with LiCl (Sigma, 600 mM-10 μl/g body weight) or placebo NaCl solution (0,0009%-10 μl/g body weight). Daily injections were made from E12 to E18 or from P10 to P60. […]

[4] = tested on: Wnt/β-catenin signaling in MuSKΔCRD mice; assay: β-catenin translocation to subsynaptic nuclei in isolated TA muscle fibers of treated MuSKΔCRD mice; format: in vivo; details: P40 TA muscle fibers, compared to NaCl-treated MuSKΔCRD
Experimental: as §4
All images were collected on a microscope (model BX61; Olympus) equipped with a Fast 1394 Digital CCD FireWire camera (model Retiga 2000R; Qimaging) and a 20× objective or on a confocal laser scanning microscope (Zeiss LSM-710) equipped with a 20× objective and 63× oil objective. Collected Z-stacks confocal images (5 to 20 stacks with 1 to 1.5 μm (20×) z-steps) and image capture were made using LSM Image Browser. The same laser power and parameter setting were applied to ensure fair comparison between WT and MuSKΔCRD muscles. Multiple Tile Scanned images were taken to cover the size of the whole diaphragm. […] For quantification of the AChR clusters number, volume and intensity, image stacks were quantified using the ImageJ (version 1.46m) plugin “3D object counter” (Bolte and Cordeliéres, 2006). […] At least 4 diaphragms or 50 isolated muscle fibers of each genotype were analyzed and quantified. To evaluate β-catenin translocation to subsynaptic nuclei in isolated muscle fibers, image stacks corresponding to nuclei were used for quantification using the ImageJ intensity plot profile measuring the intensity of β-catenin and Dapi fluorescence within the segmented line. […]

MuSKΔCRD mice [5] = assay: Rail-grip test and grip strength in treated MuSKΔCRD mice; format: in vivo; details: compared to NaCl-treated MuSKΔCRD mice
Experimental: Animals were allowed to grasp a metal rail suspended in midair and their latency to release the rail was recorded. Each mouse (N=6 for each genotype) was subjected to five trials with at least 10 min rest period between tests.
The grip strength was measured using a grip force tensiometer (Bioseb) according to the TREAT-NMD guidelines. Forelimbs and hindlimbs traction strength were recorded according to the manufacter's instructions. Three measurements were performed per animal.
as §3

WT primary myotubes = assay: AChR clustering in WT primary myotubes; format: cell-based, mice; details: Wnt11 10 ng/ml, 16 h
Experimental: as §1, with “When indicated, myotubes were treated with recombinant Agrin (0.4 μg/ml, R&D system), Wnt11 (10 ng/ml, R&D system) or LiCl (2.5 mM, Sigma) for 16 h.” left out
All images were collected on a microscope (model BX61; Olympus) equipped with a Fast 1394 Digital CCD FireWire camera (model Retiga 2000R; Qimaging) and a 20× objective or on a confocal laser scanning microscope (Zeiss LSM-710) equipped with a 20× objective and 63× oil objective. […] For quantification of the AChR clusters number, volume and intensity, image stacks were quantified using the ImageJ (version 1.46m) plugin “3D object counter” (Bolte and Cordeliéres, 2006). […] At least 4 diaphragms or 50 isolated muscle fibers of each genotype were analyzed and quantified. […]

[6] = E18.5, i.p. E12 to E18.5, vs NaCl-treated MuSKΔCRD
[7] = P40 TA, compared to NaCl-treated mice

## agrin: recombinant Agrin (R&D system), nerve-secreted protein that binds LRP4 and activates MuSK
[1]; MuSKΔCRD compared to WT primary myotubes, agrin 0.4 μg/ml
  number of AChR clusters following agrin treatment: No difference

## [Cl-].[Li+] [LiCl, lithium chloride]
[1]; LiCl 2.5 mM, MuSKΔCRD primary myotubes
  increase in the number of AChR clusters: 6 fold
[2]; LiCl-treated compared to Wnt11-treated MuSKΔCRD myotubes
  β-catenin translocation to the nucleus: increased β-catenin translocation to the nucleus
MuSKΔCRD embryos; E18.5, compared to NaCl-treated embryos
  reduction of number of bypassing neurites: 33%
MuSKΔCRD embryos; E18.5, i.p. E12 to E18.5
  reduction of length of primary nerve branches: 35%
  reduction of length of secondary nerve branches: 28%
MuSKΔCRD embryos; E18.5, i.p. E12 to E18.5, compared to NaCl-treated mutant embryos
  endplate band width reduction: 23%
MuSKΔCRD embryos; [6]
  gain in AChR clusters intensity: 20%
  gain in AChR clusters number: 103%
  gain in AChR clusters volume: 186%
MuSKΔCRD embryos; E18.5 MuSKΔCRD embryos
  rescue of pre- and postsynaptic defects: almost fully rescued both pre- and postsynaptic defects
MuSKΔCRD mice [3]; P40 TA isolated muscle fibers, compared to NaCl-treated MuSKΔCRD
  size of NMJ structures: increased in size
MuSKΔCRD mice [3]; [7]
  decrease of number of AChRs fragments per NMJ: 44%
  increase of AChR cluster area: 40%
  increase of synaptophysin area: 105%
[4]
  β-catenin translocation to subsynaptic nuclei: strong increase
MuSKΔCRD mice [5]
  fore limb strength: significantly improved
  hind limb strength: significantly improved
  latencies to fall from the rail grip: significantly improved

B1: Wnt11: member of the Wnt family known to interact with MuSK CRD; recombinant, R&D system (protein, UniProt O96014 25-354, looked up)
Protein Wnt-11: IKWLALSKTPSALALNQTQHCKQLEGLVSAQVQLCRSNLELMHTVVHAAREVMKACRRAFADMRWNCSSIELAPNYLLDLERGTRESAFVYALSAAAISHAIARACTSGDLPGCSCGPVPGEPPGPGNRWGGCADNLSYGLLMGAKFSDAPMKVKKTGSQANKLMRLHNSEVGRQALRASLEMKCKCHGVSGSCSIRTCWKGLQELQDVAADLKTRYLSATKVVHRPMGTRKHLVPKDLDIRPVKDSELVYLQSSPDFCMKNEKVGSHGTQDRQCNKTSNGSDSCDLMCCGRGYNPYTDRVVERCHCKYHWCCYVTCRRCERTVERYVCK
WT primary myotubes
  increase in the number of AChR clusters: 4.5 fold
[1]; Wnt11-treated MuSKΔCRD primary myotubes, compared to Wnt11-treated WT, 10 ng/ml
  decrease of Wnt11-induced number of AChR clusters: 80%
[2]; Wnt11-treated MuSKΔCRD compared to Wnt11-treated WT primary myotubes
  β-catenin translocation to the nucleus: strongly reduced
